Experimental data from ChEMBL document CHEMBL5653631, “A Potent and Selective ULK1 Inhibitor Suppresses Autophagy and Sensitizes Cancer Cells to Nutrient Stress” (iScience, 2018).

Tests used:
[1] = biological target: Serine/threonine-protein kinase PAK 6 (Homo sapiens) (UniProt Q9NQU5); assay: Inhibition of human recombinant PAK6 at 40 nM in presence of ATP by radiometric assay relative to control
[2] = biological target: Serine/threonine-protein kinase tousled-like 2 (Homo sapiens) (UniProt Q86UE8); assay: Inhibition of human recombinant TLK2 at 40 nM related to control ULK1
Sequence of Serine/threonine-protein kinase tousled-like 2 (Homo sapiens) (Q86UE8 whole entry, looked up): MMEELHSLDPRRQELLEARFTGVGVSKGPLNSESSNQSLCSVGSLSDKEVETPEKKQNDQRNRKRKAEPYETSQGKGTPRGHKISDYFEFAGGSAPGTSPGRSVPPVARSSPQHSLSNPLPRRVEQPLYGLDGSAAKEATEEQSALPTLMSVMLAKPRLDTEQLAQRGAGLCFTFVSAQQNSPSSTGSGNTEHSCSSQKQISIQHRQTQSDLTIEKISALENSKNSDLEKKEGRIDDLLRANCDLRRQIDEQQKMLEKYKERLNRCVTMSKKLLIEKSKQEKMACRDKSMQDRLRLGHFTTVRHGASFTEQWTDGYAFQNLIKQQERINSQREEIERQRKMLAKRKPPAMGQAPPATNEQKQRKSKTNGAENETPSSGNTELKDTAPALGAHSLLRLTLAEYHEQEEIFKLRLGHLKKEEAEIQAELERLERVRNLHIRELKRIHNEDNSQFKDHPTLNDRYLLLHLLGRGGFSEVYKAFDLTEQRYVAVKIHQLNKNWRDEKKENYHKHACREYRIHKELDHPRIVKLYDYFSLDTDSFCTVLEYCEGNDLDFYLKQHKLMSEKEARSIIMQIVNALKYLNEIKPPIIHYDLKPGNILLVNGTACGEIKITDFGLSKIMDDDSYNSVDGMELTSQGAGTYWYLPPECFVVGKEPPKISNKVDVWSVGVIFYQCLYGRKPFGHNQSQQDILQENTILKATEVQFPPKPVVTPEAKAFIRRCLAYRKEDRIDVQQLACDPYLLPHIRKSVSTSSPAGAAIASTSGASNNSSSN

[3] = biological target: Serine/threonine-protein kinase PAK 2 (Homo sapiens) (UniProt Q13177); assay: Inhibition of human recombinant PAK2 at 40 nM in presence of ATP by radiometric assay relative to control
Sequence of Serine/threonine-protein kinase PAK 2 (Homo sapiens) (Q13177 whole entry): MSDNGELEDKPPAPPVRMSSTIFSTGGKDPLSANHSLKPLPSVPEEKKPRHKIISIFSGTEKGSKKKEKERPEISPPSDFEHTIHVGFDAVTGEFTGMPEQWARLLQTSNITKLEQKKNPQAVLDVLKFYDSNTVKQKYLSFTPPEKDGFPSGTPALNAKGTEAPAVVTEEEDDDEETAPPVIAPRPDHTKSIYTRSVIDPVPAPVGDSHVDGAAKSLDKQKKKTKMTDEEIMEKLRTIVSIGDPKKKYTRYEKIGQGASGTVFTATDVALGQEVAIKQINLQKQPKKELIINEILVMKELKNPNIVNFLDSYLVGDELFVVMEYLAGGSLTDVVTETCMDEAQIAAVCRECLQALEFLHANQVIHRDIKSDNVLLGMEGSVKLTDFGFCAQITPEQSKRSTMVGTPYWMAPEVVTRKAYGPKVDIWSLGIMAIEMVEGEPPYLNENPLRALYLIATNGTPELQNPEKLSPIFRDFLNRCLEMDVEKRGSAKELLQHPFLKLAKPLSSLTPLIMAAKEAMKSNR

[4] = biological target: TGF-beta receptor type-2 (Homo sapiens) (UniProt P37173); assay: Inhibition of human recombinant TGFbR2 at 40 nM related to control ULK1
[5] = biological target: T1, Mitogen-activated protein kinase 13 (Homo sapiens) (UniProt O15264); assay: Inhibition of human recombinant p38delta at 15 nM related to control ULK1
T1 sequence (whole entry): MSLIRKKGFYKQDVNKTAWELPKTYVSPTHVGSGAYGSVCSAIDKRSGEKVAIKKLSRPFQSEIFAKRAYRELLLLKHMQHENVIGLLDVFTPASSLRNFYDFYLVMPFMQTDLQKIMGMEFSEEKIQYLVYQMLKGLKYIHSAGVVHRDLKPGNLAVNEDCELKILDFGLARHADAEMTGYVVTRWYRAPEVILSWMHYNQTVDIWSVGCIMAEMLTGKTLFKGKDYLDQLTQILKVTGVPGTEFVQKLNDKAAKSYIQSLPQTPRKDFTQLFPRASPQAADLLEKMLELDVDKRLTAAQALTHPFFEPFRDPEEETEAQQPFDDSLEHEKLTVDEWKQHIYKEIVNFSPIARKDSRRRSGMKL

[6] = biological target: MAP/microtubule affinity-regulating kinase 3 (Homo sapiens) (UniProt P27448); assay: Inhibition of human recombinant MARK3 at 15 nM in presence of ATP by radiometric assay relative to control
[7] = biological target: T2, Serine/threonine-protein kinase DCLK2 (Homo sapiens) (UniProt Q8N568); assay: Inhibition of human recombinant DCAMKL2 at 15 nM related to control ULK1
T2 sequence (whole entry): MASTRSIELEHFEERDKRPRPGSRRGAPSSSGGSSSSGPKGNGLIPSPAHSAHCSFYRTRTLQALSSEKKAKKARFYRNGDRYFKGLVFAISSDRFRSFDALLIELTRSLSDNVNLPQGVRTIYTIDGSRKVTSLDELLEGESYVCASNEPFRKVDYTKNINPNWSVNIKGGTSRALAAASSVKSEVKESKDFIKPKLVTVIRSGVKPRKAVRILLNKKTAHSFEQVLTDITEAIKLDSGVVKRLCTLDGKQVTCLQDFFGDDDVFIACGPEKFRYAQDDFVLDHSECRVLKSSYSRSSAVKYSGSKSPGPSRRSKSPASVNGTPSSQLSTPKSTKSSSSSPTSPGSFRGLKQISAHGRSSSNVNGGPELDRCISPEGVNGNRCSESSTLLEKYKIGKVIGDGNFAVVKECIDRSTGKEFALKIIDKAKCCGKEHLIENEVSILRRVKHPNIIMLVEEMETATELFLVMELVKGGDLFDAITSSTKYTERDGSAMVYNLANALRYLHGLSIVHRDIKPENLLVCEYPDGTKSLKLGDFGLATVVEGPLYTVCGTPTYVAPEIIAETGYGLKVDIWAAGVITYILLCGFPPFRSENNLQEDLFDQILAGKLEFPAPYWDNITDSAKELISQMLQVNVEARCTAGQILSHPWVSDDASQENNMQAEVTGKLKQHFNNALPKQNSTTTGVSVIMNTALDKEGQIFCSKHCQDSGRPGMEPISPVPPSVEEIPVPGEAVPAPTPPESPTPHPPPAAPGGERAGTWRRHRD

[8] = biological target: Dual specificity mitogen-activated protein kinase kinase 2 (Homo sapiens) (UniProt P36507); assay: Inhibition of human recombinant MAP2K2 at 15 nM related to control ULK1
Sequence of Dual specificity mitogen-activated protein kinase kinase 2 (Homo sapiens) (P36507 whole entry): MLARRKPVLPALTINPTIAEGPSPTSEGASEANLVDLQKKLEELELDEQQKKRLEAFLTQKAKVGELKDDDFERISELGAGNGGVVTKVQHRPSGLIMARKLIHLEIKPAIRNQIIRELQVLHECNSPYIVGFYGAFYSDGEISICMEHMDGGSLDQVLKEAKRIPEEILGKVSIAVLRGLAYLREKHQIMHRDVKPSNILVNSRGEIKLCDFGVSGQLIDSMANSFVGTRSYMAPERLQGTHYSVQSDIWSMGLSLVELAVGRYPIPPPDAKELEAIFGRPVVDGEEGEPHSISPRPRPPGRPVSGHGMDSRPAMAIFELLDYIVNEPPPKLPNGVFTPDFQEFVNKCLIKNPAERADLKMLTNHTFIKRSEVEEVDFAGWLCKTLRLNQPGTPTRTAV

[9] = biological target: Serine/threonine-protein kinase Nek4 (Homo sapiens) (UniProt P51957); assay: Inhibition of human recombinant NEK4 at 15 nM related to control ULK1
Sequence of Serine/threonine-protein kinase Nek4 (Homo sapiens) (P51957 whole entry, looked up): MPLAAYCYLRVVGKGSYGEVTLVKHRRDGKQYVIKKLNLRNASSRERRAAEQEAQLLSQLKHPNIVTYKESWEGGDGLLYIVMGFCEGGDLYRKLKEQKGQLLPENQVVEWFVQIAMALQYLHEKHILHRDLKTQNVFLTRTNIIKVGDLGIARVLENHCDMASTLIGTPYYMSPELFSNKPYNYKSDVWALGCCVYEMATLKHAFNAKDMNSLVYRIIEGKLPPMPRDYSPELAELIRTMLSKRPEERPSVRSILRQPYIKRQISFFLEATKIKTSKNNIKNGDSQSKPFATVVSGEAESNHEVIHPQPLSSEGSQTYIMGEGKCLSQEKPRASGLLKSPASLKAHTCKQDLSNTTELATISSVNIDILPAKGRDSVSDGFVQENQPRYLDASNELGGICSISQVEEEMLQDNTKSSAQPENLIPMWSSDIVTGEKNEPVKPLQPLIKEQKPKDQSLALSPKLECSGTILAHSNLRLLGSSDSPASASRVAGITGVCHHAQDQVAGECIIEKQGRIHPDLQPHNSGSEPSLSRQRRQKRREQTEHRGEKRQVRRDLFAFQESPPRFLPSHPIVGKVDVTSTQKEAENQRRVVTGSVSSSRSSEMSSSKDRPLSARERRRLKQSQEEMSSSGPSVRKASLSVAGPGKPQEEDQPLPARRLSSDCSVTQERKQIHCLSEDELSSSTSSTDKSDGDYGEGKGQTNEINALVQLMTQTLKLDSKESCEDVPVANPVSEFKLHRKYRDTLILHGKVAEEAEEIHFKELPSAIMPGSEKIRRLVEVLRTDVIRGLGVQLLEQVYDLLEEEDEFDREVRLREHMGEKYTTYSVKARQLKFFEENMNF

[10] = biological target: Serine/threonine-protein kinase SIK1 (Homo sapiens) (UniProt P57059); assay: Inhibition of human recombinant SIK at 15 nM in presence of ATP by radiometric assay relative to control
Sequence of Serine/threonine-protein kinase SIK1 (Homo sapiens) (P57059 whole entry): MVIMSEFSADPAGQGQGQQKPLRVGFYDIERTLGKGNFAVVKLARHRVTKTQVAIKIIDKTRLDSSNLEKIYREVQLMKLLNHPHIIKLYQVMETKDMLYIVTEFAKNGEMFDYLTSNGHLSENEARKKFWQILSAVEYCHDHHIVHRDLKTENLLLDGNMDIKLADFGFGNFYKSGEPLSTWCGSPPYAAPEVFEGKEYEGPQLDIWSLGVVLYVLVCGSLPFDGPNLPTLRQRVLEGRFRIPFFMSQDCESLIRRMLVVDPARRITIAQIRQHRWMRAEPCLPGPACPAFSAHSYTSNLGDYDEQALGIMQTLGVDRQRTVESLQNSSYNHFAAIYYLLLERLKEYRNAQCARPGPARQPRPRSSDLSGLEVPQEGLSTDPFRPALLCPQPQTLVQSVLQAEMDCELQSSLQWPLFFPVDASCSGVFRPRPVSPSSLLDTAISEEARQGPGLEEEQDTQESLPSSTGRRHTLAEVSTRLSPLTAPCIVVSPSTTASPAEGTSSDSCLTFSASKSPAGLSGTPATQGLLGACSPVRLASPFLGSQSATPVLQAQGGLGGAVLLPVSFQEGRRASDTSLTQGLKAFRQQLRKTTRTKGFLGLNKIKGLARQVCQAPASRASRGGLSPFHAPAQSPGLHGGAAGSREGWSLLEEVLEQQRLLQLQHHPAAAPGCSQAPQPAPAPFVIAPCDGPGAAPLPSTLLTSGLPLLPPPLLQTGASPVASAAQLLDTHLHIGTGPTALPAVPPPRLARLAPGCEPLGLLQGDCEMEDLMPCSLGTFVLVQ

[11] = biological target: cAMP-dependent protein kinase catalytic subunit beta (Homo sapiens) (UniProt P22694); assay: Inhibition of human recombinant PKACbeta at 500 nM in presence of ATP by radiometric assay relative to control
[12] = biological target: T3, MAP kinase-activated protein kinase 5 (Homo sapiens) (UniProt Q8IW41); assay: Inhibition of human recombinant MAPKAPK5 at 500 nM related to control ULK1
T3 sequence (whole entry): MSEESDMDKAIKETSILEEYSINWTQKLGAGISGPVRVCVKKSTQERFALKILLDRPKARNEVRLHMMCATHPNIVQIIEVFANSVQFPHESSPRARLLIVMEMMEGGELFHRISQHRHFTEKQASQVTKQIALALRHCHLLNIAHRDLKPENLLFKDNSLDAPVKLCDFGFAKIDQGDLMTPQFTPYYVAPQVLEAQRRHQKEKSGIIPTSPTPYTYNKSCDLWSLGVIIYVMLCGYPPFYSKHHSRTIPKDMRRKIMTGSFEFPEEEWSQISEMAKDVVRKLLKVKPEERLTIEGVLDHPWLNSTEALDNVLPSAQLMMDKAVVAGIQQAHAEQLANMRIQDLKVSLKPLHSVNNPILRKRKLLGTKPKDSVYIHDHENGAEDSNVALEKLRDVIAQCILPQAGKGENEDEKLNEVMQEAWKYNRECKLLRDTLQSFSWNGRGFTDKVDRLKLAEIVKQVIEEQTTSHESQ

[13] = biological target: Macrophage colony-stimulating factor 1 receptor (Homo sapiens) (UniProt P07333); assay: Inhibition of human recombinant FMS at 500 nM related to control ULK1
Sequence of Macrophage colony-stimulating factor 1 receptor (Homo sapiens) (P07333 whole entry): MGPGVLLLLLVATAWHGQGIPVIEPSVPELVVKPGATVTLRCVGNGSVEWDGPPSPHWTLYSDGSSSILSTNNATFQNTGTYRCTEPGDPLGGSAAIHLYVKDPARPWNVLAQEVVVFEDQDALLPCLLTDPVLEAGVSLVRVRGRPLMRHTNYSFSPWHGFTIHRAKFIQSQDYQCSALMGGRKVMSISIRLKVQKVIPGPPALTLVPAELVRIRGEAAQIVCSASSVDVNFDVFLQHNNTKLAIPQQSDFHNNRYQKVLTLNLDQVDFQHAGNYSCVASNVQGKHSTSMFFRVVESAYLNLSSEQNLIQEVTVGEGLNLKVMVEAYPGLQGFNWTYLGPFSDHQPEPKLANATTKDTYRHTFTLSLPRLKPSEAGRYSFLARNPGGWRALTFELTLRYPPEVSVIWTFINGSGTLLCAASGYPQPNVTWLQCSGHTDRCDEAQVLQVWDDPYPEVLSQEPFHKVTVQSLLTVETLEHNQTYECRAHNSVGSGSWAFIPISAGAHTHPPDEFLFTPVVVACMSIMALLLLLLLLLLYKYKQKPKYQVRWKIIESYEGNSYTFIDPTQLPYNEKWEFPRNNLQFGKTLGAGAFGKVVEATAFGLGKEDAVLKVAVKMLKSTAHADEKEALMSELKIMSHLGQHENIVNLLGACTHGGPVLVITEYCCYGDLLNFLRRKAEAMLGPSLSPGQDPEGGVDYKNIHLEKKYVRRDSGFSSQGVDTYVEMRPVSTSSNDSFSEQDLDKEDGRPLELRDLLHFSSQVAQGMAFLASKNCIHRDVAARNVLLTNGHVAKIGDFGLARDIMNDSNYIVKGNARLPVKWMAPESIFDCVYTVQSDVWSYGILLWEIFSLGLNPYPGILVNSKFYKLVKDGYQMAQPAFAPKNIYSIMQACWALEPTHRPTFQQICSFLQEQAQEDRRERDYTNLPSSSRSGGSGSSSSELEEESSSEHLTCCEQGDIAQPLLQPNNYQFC

Sequence of Serine/threonine-protein kinase PAK 6 (Homo sapiens) (Q9NQU5 whole entry, looked up): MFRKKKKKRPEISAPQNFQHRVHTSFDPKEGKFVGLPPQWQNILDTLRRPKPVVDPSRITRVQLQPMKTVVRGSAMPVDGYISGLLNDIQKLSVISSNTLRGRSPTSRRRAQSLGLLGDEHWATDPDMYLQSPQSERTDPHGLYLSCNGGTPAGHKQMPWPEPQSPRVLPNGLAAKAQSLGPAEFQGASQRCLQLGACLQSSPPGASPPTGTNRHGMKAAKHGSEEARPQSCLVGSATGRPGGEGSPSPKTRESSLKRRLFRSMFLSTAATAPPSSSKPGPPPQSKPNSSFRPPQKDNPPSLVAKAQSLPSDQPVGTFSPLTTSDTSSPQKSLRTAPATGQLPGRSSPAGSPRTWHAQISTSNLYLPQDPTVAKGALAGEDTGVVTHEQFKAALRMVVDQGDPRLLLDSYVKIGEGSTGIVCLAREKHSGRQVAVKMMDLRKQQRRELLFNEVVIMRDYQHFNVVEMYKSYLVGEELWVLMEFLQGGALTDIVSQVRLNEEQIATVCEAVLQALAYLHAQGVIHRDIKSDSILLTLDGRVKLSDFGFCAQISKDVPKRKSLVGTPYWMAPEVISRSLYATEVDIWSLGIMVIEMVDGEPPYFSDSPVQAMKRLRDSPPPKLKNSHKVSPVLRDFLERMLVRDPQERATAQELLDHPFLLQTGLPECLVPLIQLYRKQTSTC

Work on `O=C(N[C@@H](C1CC1)C(F)(F)F)c1cc(-c2cnn3cc(-c4ccc(F)cc4)cnc23)cs1` yielded an inhibition [1] of 7%, a fold change (FC) [2] of 0 and an inhibition [3] of 0%. For the same compound, the fold change (FC) [4] was 0.64.

Work on `CC(C)[C@H](NC(=O)c1cc(-c2cnn3cc(-c4ccc(OCCN5CCCCC5)cc4)cnc23)cs1)C(F)(F)F` yielded a fold change (FC) [5] of 0.07, an inhibition [6] of 63% and a fold change (FC) [7] of 0.14. The fold change (FC) [8] was 0, the fold change (FC) [9] was 0.07 and the inhibition [10] was 74%.

`CNC(=O)c1ccccc1Oc1nc(Nc2cc(OC)c(OC)c(OC)c2)ncc1Br` gave an inhibition [11] of 0%, a fold change (FC) [12] of 0 and a fold change (FC) [13] of 0.26.
